The values that follow come from patent publication US20230279025A1, “KRAS G12D INHIBITORS” (Mirati Therapeutics, Inc., priority 2020, published 2023).

In the assay the target is KRas G12D (Homo sapiens (Human), UniProt P01116, G12D). As to the kind of experiment: KRas G12D Binding Assay (TR-FRET displacement of Cy5 labelled tracer). Conditions: GDP-loaded KRAS G12D (amino acids 1:169), 60 minute incubation at 22° C. Here is the method: After a 60 minute incubation at 22° C., the reaction was measured using a PerkinElmer EnVision multimode plate reader via TR-FRET dual wavelength detection, and the percent of control (POC) calculated using a ratiometric emission factor. […] The POC values were fit to a 4-parameter logistic curve and the IC50 value was determined as the concentration where the curve crosses 50 POC.
Sequence of KRas G12D (P01116 other isoform, or with tags, fused parts or gaps G12D): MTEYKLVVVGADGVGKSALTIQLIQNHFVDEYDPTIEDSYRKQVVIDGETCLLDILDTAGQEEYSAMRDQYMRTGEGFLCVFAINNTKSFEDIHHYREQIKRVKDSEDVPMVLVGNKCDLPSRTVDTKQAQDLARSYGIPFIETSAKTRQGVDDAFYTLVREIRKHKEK
ND stands for “not determined.”
Background: In TR-FRET formats the signal depends on donor and acceptor labels being close together.

Consider `CC1CCc2cccc(-c3ncc4c(N5CC6CCC(C5)N6)nc(OC[C@@]56CCCN5C[C@H](F)C6)nc4c3F)c21` (stereo partly drawn) [Example 429, 4-(3,8-diazabicyclo[3.2.1]octan-3-yl)-8-fluoro-2-(((2R,7aS)-2-fluorotetrahydro-1H-pyrrolizin-7a(5H)-yl)methoxy)-7-(3-methyl-2,3-dihydro-1H-inden-4-yl)pyrido[4,3-d]pyrimidine], for which the IC50 (as a rule, the concentration that gives 50% inhibition) was 18.5 nM. To `Fc1c(-c2cccc3cccc(Cl)c23)ncc2c(N3C[C@H]4CC[C@@H](C3)N4)nc(OCC34CC(F)CN3CC(F)C4)nc12` (stereo partly drawn) [Example 425, 4-((1R,5S)-3,8-diazabicyclo[3.2.1]octan-3-yl)-7-(8-chloronaphthalen-1-yl)-2-((2,6-difluorohexahydro-1H-pyrrolizin-7a-yl)methoxy)-8-fluoropyrido[4,3-d]pyrimidine] belongs 90.2 nM; to `Fc1c(-c2cccc3c2CC2CC32)ncc2c(N3CC4CCC(C3)N4)nc(OC[C@@]34CCCN3C[C@H](F)C4)nc12` (stereo partly drawn) [Example 438, 4-(3,8-diazabicyclo[3.2.1]octan-3-yl)-8-fluoro-2-(((2R,7aS)-2-fluorotetrahydro-1H-pyrrolizin-7a(5H)-yl)methoxy)-7-(1,1a,6,6a-tetrahydrocyclopropa[a]inden-5-yl)pyrido[4,3-d]pyrimidine], 20.1 nM. Next, `Fc1c(-c2ccccc2Cl)ncc2c(N3CC4CCC(C3)N4)nc(OC[C@@]34CCCN3C[C@H](F)C4)nc12` (stereo in doubt) [Example 414, 4-((1R,5S)-3,8-diazabicyclo[3.2.1]octan-3-yl)-7-(2-chlorophenyl)-8-fluoro-2-((2-fluorotetrahydro-1H-pyrrolizin-7a(5H)-yl)methoxy)pyrido[4,3-d]pyrimidine]: 873 nM; `N#C[C@H]1CCN2CCC[C@@]12COc1nc(N2CC3CCC(C2)N3)c2cnc(-c3cccc4cccc(Cl)c34)c(F)c2n1` (stereo in doubt) [Example 379, 7a-(((4-((1R,5S)-3,8-diazabicyclo[3.2.1]octan-3-yl)-7-(8-chloronaphthalen-1-yl)-8-fluoropyrido[4,3-d]pyrimidin-2-yl)oxy)methyl)hexahydro-1H-pyrrolizine-1-carbonitrile]: 249 nM. Regarding `Cn1cnnc1CCOc1nc(N2C[C@H]3CC[C@@H](C2)N3)c2cnc(-c3cccc4cccc(Cl)c34)c(F)c2n1` [Example 154, 4-((1R,5S)-3,8-diazabicyclo[3.2.1]octan-3-yl)-7-(8-chloronaphthalen-1-yl)-8-fluoro-2-(2-(4-methyl-4H-1,2,4-triazol-3-yl)ethoxy)pyrido[4,3-d]pyrimidine], the 50% inhibitory concentration (IC50) was 6530 nM.

Compound `Cc1cccc(O)c1-c1ncc2c(N3CC4CCC(C3)N4)nc(OC[C@@]34CCCN3C[C@H](F)C4)nc2c1F` (racemic) [Example 377, 2-(4-((1R,5S)-3,8-diazabicyclo[3.2.1]octan-3-yl)-8-fluoro-2-((2-fluorotetrahydro-1H-pyrrolizin-7a(5H)-yl)methoxy)pyrido[4,3-d]pyrimidin-7-yl)-3-methylphenol] came in with an IC50 of 417 nM. Next, `CCc1c(F)ccc2cccc(-c3ncc4c(N5CC6CCC(C5)N6)nc(OC[C@@]56CCCN5C[C@H](F)C6)nc4c3F)c12` (stereo in doubt) [Example 381, 4-((1R,5S)-3,8-diazabicyclo[3.2.1]octan-3-yl)-7-(8-ethyl-7-fluoronaphthalen-1-yl)-8-fluoro-2-((2-fluorotetrahydro-1H-pyrrolizin-7a(5H)-yl)methoxy)pyrido[4,3-d]pyrimidine]: 0.7 nM; `Fc1cccc(-c2ncc3c(N4C[C@H]5CC[C@@H](C4)N5)nc(OCC45CCCN4CCC5)nc3c2F)c1C1CC1` [Example 304, 4-((1R,5S)-3,8-diazabicyclo[3.2.1]octan-3-yl)-7-(2-cyclopropyl-3-fluorophenyl)-8-fluoro-2-((hexahydro-1H-pyrrolizin-7a-yl)methoxy)pyrido[4,3-d]pyrimidine]: 29.2 nM; `Cc1cc2[nH]ccc2c(-c2ncc3c(N4C[C@H]5CC[C@@H](C4)N5)nc(OCC45CCCN4CCC5)nc3c2F)c1C` [Example 250, 4-((1R,5S)-3,8-diazabicyclo[3.2.1]octan-3-yl)-7-(5,6-dimethyl-1H-indol-4-yl)-8-fluoro-2-((hexahydro-1H-pyrrolizin-7a-yl)methoxy)pyrido[4,3-d]pyrimidine]: 28.2 nM.

The compound `Oc1cc(Cl)c(C2CC2)c(-c2ncc3c(N4C[C@H]5CC[C@@H](C4)N5)nc(OC[C@@]45CCCN4C[C@H](F)C5)nc3c2F)c1` [Example 283, 3-(4-((1R,5S)-3,8-diazabicyclo[3.2.1]octan-3-yl)-8-fluoro-2-(((2R,7aS)-2-fluorohexahydro-1H-pyrrolizin-7a-yl)methoxy)pyrido[4,3-d]pyrimidin-7-yl)-5-chloro-4-cyclopropylphenol] came in with a half-inhibitory concentration (IC50) of 0.7 nM. For the compound `Fc1c(-c2cccc3ccccc23)ncc2c(N3C[C@H]4CC[C@@H](C3)N4)nc(OCC34CCCN3CCC4)nc12` [Example 186, 4-((1R,5S)-3,8-diazabicyclo[3.2.1]octan-3-yl)-8-fluoro-7-(naphthalen-1-yl)-2-((tetrahydro-1H-pyrrolizin-7a(5H)-yl)methoxy)pyrido[4,3-d]pyrimidine], the IC50 was 29.2 nM. Next, `CC(C)Cc1ccccc1-c1ncc2c(N3CC4CCC(C3)N4)nc(OC[C@@]34CCCN3C[C@H](F)C4)nc2c1F` (stereo in doubt) [Example 417, 4-((1R,5S)-3,8-diazabicyclo[3.2.1]octan-3-yl)-8-fluoro-2-((2-fluorotetrahydro-1H-pyrrolizin-7a(5H)-yl)methoxy)-7-(2-isobutylphenyl)pyrido[4,3-d]pyrimidine]: 595 nM; `O=C(NCCOc1nc(N2C[C@H]3CC[C@@H](C2)N3)c2cnc(-c3cc(O)cc4ccccc34)c(F)c2n1)c1ccc(S(=O)(=O)F)cc1` [Example 212, 4-((2-((4-((1R,5S)-3,8-diazabicyclo[3.2.1]octan-3-yl)-8-fluoro-7-(3-hydroxynaphthalen-1-yl)pyrido[^4,3-d]pyrimidin-2-yl)oxy)ethyl)carbamoyl)benzenesulfonyl fluoride bis(2,2,2-trifluoroacetate)]: 1220 nM. `OCc1cccc2cccc(-c3ncc4c(N5C[C@H]6CC[C@@H](C5)N6)nc(OCC56CCCN5CCC6)nc4c3F)c12` [Example 238, (8-(4-((1R,5S)-3,8-diazabicyclo[3.2.1]octan-3-yl)-8-fluoro-2-((tetrahydro-1H-pyrrolizin-7a(5H)-yl)methoxy)pyrido[4,3-d]pyrimidin-7-yl)naphthalen-1-yl)methanol] displayed an IC50 of 16.1 nM. To `Fc1c(-c2cccc(Cl)c2OC(F)(F)F)ncc2c(N3CC4CCC(C3)N4)nc(OCC34CCCN3CCC4)nc12` [Example 230, 4-((1R,5S)-3,8-diazabicyclo[3.2.1]octan-3-yl)-7-(3-chloro-2-(trifluoromethoxy)phenyl)-8-fluoro-2-((tetrahydro-1H-pyrrolizin-7a(5H)-yl)methoxy)pyrido[4,3-d]pyrimidine bis(2,2,2-trifluoroacetate] belongs 1430 nM; to `Fc1c(-c2cccc3cccc(Cl)c23)ncc2c(N3CC4CCC(C3)N4)nc(OC[C@@H]3CC(F)(F)CN3)nc12` [Example 352, 4-((1R,5S)-3,8-diazabicyclo[3.2.1]octan-3-yl)-7-(8-chloronaphthalen-1-yl)-2-(((S)-4,4-difluoropyrrolidin-2-yl)methoxy)-8-fluoropyrido[4,3-d]pyrimidine bis(2,2,2-trifluoroacetate)], 845 nM.
